Laboratory results taken from US20120121591A1 (priority 2009, published 2012).
Where two headings read alike, the source gives them in different places.

Tests used:
Type in all cases: cell-based
[1] = molecular target: hKv1.3 (Homo sapiens, UniProt P22001); test: cell-based; settings: Kv1.3 (IWQ) IC50 (nM, Avg)
[2] = test system: IL-2 secretion from T cells in human whole blood; settings: read-out: WB (IL-2) IC50 (nM, Avg)
[3] = test system: IFN-g secretion from T cells in human whole blood
[4] = read-out: WB (IFNg) IC50 (nM, Avg)
[5] = read-out: WB (IFNg) IC5- (nM, Avg)

Sequence of hKv1.3 (P22001 whole entry): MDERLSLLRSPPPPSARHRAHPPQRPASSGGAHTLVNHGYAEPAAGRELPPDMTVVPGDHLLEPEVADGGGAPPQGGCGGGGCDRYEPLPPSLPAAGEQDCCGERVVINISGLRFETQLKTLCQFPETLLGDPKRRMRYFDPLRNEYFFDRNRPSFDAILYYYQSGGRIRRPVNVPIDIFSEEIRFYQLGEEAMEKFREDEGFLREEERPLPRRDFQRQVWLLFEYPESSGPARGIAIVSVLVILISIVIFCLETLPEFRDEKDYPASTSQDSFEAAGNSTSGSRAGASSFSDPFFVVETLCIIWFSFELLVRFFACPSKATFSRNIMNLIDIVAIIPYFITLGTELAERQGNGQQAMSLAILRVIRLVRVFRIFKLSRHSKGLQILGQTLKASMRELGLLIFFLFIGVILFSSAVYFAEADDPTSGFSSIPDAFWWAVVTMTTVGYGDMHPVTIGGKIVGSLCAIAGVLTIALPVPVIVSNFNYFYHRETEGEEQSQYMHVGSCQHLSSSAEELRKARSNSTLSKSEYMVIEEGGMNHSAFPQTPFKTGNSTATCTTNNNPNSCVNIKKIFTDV

`CC[C@H](C)[C@@H]1NC(=O)[C@H]([C@@H](C)O)NC(=O)[C@H](CC(=O)O)NC(=O)[C@H](CCC(=O)O)NC(=O)[C@@H](NC(=O)[C@H](CO)NC(=O)[C@@H](N)CCCNC(=N)N)CSSC[C@@H](C(N)=O)NC(=O)[C@H]([C@@H](C)O)NC(=O)CNC(=O)[C@@H]2CSSC[C@@H]3NC(=O)[C@H](CCCCN)NC(=O)[C@H](Cc4ccccc4)NC(=O)[C@H](C)NC(=O)[C@H]([C@@H](C)O)NC(=O)[C@H](CSSC[C@H](NC(=O)[C@H](Cc4ccccc4)NC(=O)[C@H](CO)NC(=O)[C@H](CC(C)C)NC(=O)[C@H](CCCNC(=N)N)NC(=O)[C@H](Cc4ccc(O)cc4)NC(=O)[C@H](CCCCN)NC(=O)[C@H](CCSC)NC(=O)[C@H](CO)NC(=O)[C@H](Cc4c[nH]cn4)NC(=O)[C@H](CCCNC(=N)N)NC3=O)C(=O)N[C@@H](CCCCN)C(=O)N[C@@H](CCCNC(=N)N)C(=O)N[C@@H]([C@@H](C)O)C(=O)N2)NC(=O)[C@H](CCCNC(=N)N)NC(=O)[C@H](CO)NC(=O)[C@H](CCCCN)NC(=O)[C@@H]2CCCN2C1=O` [[Glu4; Lys16, 29;Arg18, 30]ShK-amide] gave an IC50 [1] of 0.192 nM, an IC50 [2] of 0.203 nM and an IC50 [3, 4] of 0.353 nM.

`CC[C@H](C)[C@@H]1NC(=O)[C@H]([C@@H](C)O)NC(=O)[C@H](CC(=O)O)NC(=O)[C@H](CCC(=O)O)NC(=O)[C@@H](NC(=O)[C@H](CO)NC(=O)[C@@H](N)CCCNC(=N)N)CSSC[C@@H](C(=O)O)NC(=O)[C@H]([C@@H](C)O)NC(=O)CNC(=O)[C@@H]2CSSC[C@@H]3NC(=O)[C@H](CCC(N)=O)NC(=O)[C@H](Cc4ccccc4)NC(=O)[C@H](C)NC(=O)[C@H]([C@@H](C)O)NC(=O)[C@H](CSSC[C@H](NC(=O)[C@H](Cc4ccccc4)NC(=O)[C@H](CO)NC(=O)[C@H](CC(C)C)NC(=O)[C@H](CCCNC(=N)N)NC(=O)[C@H](Cc4ccc(O)cc4)NC(=O)[C@H](CCCCN)NC(=O)[C@H](CCSC)NC(=O)[C@H](CO)NC(=O)[C@H](Cc4c[nH]cn4)NC(=O)[C@H](CCCCN)NC3=O)C(=O)N[C@@H](CCCNC(=N)N)C(=O)N[C@@H](CCCCN)C(=O)N[C@@H]([C@@H](C)O)C(=O)N2)NC(=O)[C@H](CCCNC(=N)N)NC(=O)[C@H](CO)NC(=O)[C@H](CCCCN)NC(=O)[C@@H]2CCCN2C1=O` [[Glu4]ShK] was tested, and the IC50 [1] was 0.07 nM, the IC50 [2] was 0.031 nM and the IC50 [3, 5] was 0.049 nM.

`CC[C@H](C)[C@@H]1NC(=O)[C@@H](NC(=O)[C@H](CO)NC(=O)[C@@H](N)CCCNC(=N)N)CSSC[C@@H](C(=O)O)NC(=O)[C@H]([C@@H](C)O)NC(=O)CNC(=O)[C@@H]2CSSC[C@@H]3NC(=O)[C@H](CCC(N)=O)NC(=O)[C@H](Cc4ccccc4)NC(=O)[C@H](C)NC(=O)[C@H]([C@@H](C)O)NC(=O)[C@H](CSSC[C@H](NC(=O)[C@H](Cc4ccccc4)NC(=O)[C@H](CO)NC(=O)[C@H](CC(C)C)NC(=O)[C@H](CCCNC(=N)N)NC(=O)[C@H](Cc4ccc(O)cc4)NC(=O)[C@H](CCCCN)NC(=O)[C@H](CCSC)NC(=O)[C@H](CO)NC(=O)[C@H](Cc4c[nH]cn4)NC(=O)[C@H](CCCCN)NC3=O)C(=O)N[C@@H](CCCNC(=N)N)C(=O)N[C@@H](CCCCN)C(=O)N[C@@H]([C@@H](C)O)C(=O)N2)NC(=O)[C@H](CCCNC(=N)N)NC(=O)[C@H](CO)NC(=O)[C@H](CCCCN)NC(=O)[C@@H]2CCCN2C(=O)[C@H]([C@@H](C)CC)NC(=O)[C@H]([C@@H](C)O)NC(=O)[C@H](CCC(=O)O)NC1=O` [[Glu5]ShK] gave an IC50 [1] of 3.3 nM, an IC50 [2] of 16.9 nM and an IC50 [3, 5] of 24.6 nM.

`CC[C@H](C)[C@@H]1NC(=O)[C@@H](NC(=O)[C@H](CO)NC(=O)[C@@H](N)CCCNC(=N)N)CSSC[C@@H](C(=O)O)NC(=O)[C@H]([C@@H](C)O)NC(=O)CNC(=O)[C@@H]2CSSC[C@@H]3NC(=O)[C@H](CCC(N)=O)NC(=O)[C@H](Cc4ccccc4)NC(=O)[C@H](C)NC(=O)[C@H]([C@@H](C)O)NC(=O)[C@H](CSSC[C@H](NC(=O)[C@H](Cc4ccccc4)NC(=O)[C@H](CO)NC(=O)[C@H](CC(C)C)NC(=O)[C@H](CCCNC(=N)N)NC(=O)[C@H](Cc4ccc(O)cc4)NC(=O)[C@H](CCCCN)NC(=O)[C@H](CCSC)NC(=O)[C@H](CO)NC(=O)[C@H](Cc4c[nH]cn4)NC(=O)[C@H](CCCCN)NC3=O)C(=O)N[C@@H](CCCNC(=N)N)C(=O)N[C@@H](CCCCN)C(=O)N[C@@H]([C@@H](C)O)C(=O)N2)NC(=O)[C@H](CCCNC(=N)N)NC(=O)[C@H](CO)NC(=O)[C@H](CCCCN)NC(=O)[C@@H]2CCCN2C(=O)[C@H]([C@@H](C)CC)NC(=O)[C@H](CCC(=O)O)NC(=O)[C@H](CC(=O)O)NC1=O` [[Glu6]ShK] gave an IC50 [1] of 0.17 nM, an IC50 [2] of 0.073 nM and an IC50 [3, 5] of 0.109 nM.

Molecule `CC[C@H](C)[C@@H]1NC(=O)[C@@H](NC(=O)[C@H](CO)NC(=O)[C@@H](N)CCCNC(=N)N)CSSC[C@@H](C(=O)O)NC(=O)[C@H]([C@@H](C)O)NC(=O)CNC(=O)[C@@H]2CSSC[C@@H]3NC(=O)[C@H](CCC(N)=O)NC(=O)[C@H](Cc4ccccc4)NC(=O)[C@H](C)NC(=O)[C@H]([C@@H](C)O)NC(=O)[C@H](CSSC[C@H](NC(=O)[C@H](Cc4ccccc4)NC(=O)[C@H](CO)NC(=O)[C@H](CC(C)C)NC(=O)[C@H](CCCNC(=N)N)NC(=O)[C@H](Cc4ccc(O)cc4)NC(=O)[C@H](CCCCN)NC(=O)[C@H](CCSC)NC(=O)[C@H](CO)NC(=O)[C@H](Cc4c[nH]cn4)NC(=O)[C@H](CCCCN)NC3=O)C(=O)N[C@@H](CCCNC(=N)N)C(=O)N[C@@H](CCCCN)C(=O)N[C@@H]([C@@H](C)O)C(=O)N2)NC(=O)[C@H](CCCNC(=N)N)NC(=O)[C@H](CO)NC(=O)[C@H](CCCCN)NC(=O)[C@@H]2CCCN2C(=O)[C@H](CCC(=O)O)NC(=O)[C@H]([C@@H](C)O)NC(=O)[C@H](CC(=O)O)NC1=O` [[Glu7]ShK] has an IC50 [1] of 1.25 nM, an IC50 [2] of 5 nM and an IC50 [3, 5] of 19.5 nM.

`CCCC[C@@H]1NC(=O)[C@H](CO)NC(=O)[C@H](Cc2c[nH]cn2)NC(=O)[C@H](CCCCN)NC(=O)[C@@H]2CSSC[C@@H]3NC(=O)[C@H]([C@@H](C)O)NC(=O)[C@H](CCCCN)NC(=O)[C@H](CCCNC(=N)N)NC(=O)[C@H](CSSC[C@H](NC(=O)[C@H](CCCNC(=N)N)NC(=O)[C@H](CO)NC(=O)[C@H](CCC(=O)O)NC(=O)[C@@H]4CCCN4C(=O)[C@H]([C@@H](C)CC)NC(=O)[C@H]([C@@H](C)O)NC(=O)[C@H](CC(=O)O)NC(=O)[C@H]([C@@H](C)CC)NC(=O)[C@@H](NC(=O)[C@H](CO)NC(=O)[C@@H](N)CCCNC(=N)N)CSSC[C@@H](C(N)=O)NC(=O)[C@H]([C@@H](C)O)NC(=O)CNC3=O)C(=O)N[C@@H]([C@@H](C)O)C(=O)N[C@@H](C)C(=O)N[C@@H](Cc3ccccc3)C(=O)N[C@@H](CCCCN)C(=O)N2)NC(=O)[C@H](Cc2ccccc2)NC(=O)[C@H](CO)NC(=O)[C@H](CC(C)C)NC(=O)[C@H](CCCNC(=N)N)NC(=O)[C@H](Cc2ccc(O)cc2)NC(=O)[C@H](CCCCN)NC1=O` [[Glu9, Lys16,Nle21]ShK-amide] showed an IC50 [1] of 0.263 nM, an IC50 [2] of 0.257 nM and an IC50 [3, 4] of 0.342 nM.
